Data from US20230085578A1, “SYSTEMS AND METHODS FOR TRIPLE-PARAMETRIC OPTICAL MAPPING” (The George Washington University, priority 2021, published 2023).
Where two headings read alike, the source gives them in different places.

Tested on: mouse hearts
Assay: Triple parametric optical mapping (Vm, Ca2+, NADH) of Langendorff-perfused mouse hearts during drug treatment
Design: Effect on contractions of the heart (electromechanical uncoupling): dose or concentration left out as unconfirmed
Details: for APD80 (action potential duration) / CVL (longitudinal conduction velocity) / CVT (transverse conduction velocity) / Ca2+ RT (rise time) / Ca t (calcium decay time constant) / CaTD80 (calcium transient duration) / NADH fluorescence intensity (normalized to first recording of the heart) / Vm-Ca2+ delay / Vm RT (rise time) / AR (anisotropic ratio, CVL to CVT): Blebbistatin 15 μM, Verapamil 1 μM, mean±SEM
Procedure: Langendorff perfusion: Adult male and female mice on C57BL/6 background were used in this study. Mice were anesthetized by isoflurane inhalation and cervical dislocation was performed. Hearts were quickly excised following thoracotomy and the aorta was cannulated. The heart was attached to a Langendorff perfusion system, hung in a vertical position in a temperature-controlled bath and perfused with a modified Tyrode's solution containing (in mM) 130 NaCl, 24 NaHCO3, 1.2 NaH2PO4, 1 MgCl2, 5.6 Glucose, 4 KCl, 1.8 CaCl2, pH 7.40 and bubbled with carbogen (95% 02 and 5% CO2) at 37° C. Perfusion pressure was maintained at ˜80 mmHg by adjusting the flow rate between 1 and 1.5 ml/min. A platinum bipolar electrode was placed at the center of the anterior surface residing the middle of the field of view. Gentle pressure was applied to the back of the heart as it was pushed up to the front optical glass of the bath using a paddle, allowing the pacing electrode to be held in place. Electrical stimuli were applied to determine the threshold of pacing. Hearts were paced at 1.5× pacing threshold amplitude and 2 ms stimulus duration, only during optical recording. Hearts were paced at varying rates as listed in the figures to determine the restitution properties of the heart under each condition.
Optical Mapping: The heart was subjected to a 10 min equilibration period followed by staining with the voltage- and calcium-sensitive dyes. A 1 ml mixture of RH237 ([…] Tyrode's solution, Biotium 61018) was prepared and immediately injected into the dye port above the cannula over a 3-5 min period. This was followed by a 5 min washout period. Similarly, a 1 ml mixture of Rhod2-AM (30 ul of 1 mg/ml dye stock solution+[…] Tyrode's solution, Thermo Fisher Scientific R1244 and Biotium 59005, respectively) was prepared and immediately injected into the dye port over a 3-5 min period. This was followed by 5 min dye washout period.
The heart was then illuminated by two LED excitation light sources at 365 nm and 520±5 nm wavelengths. While the former induces autofluorescence of NADH in the tissue, the latter excites both RH237 and Rhod2-AM dyes. Control optical recordings of NADH, Vm, and Ca^2+ were simultaneously acquired at 1 kHz sampling rate. NADH, Vm, and Ca^2+ are indicative of […].
[…] […] Optical recordings were once again acquired for each of these conditions as described above.
Data Analysis: Optical data of NADH, transmembrane potential and calcium were analyzed using a custom Matlab software, Rhythm 3.0, which is available in an open-source format on Github. Rhythm 3.0 which is an upgraded version of Rhythm 1.2, incorporates NADH visualization and analysis features as well as the ability to calculate delay in transmembrane potential to intracellular calcium activation (Vm-Ca^2+ Delay). Rhythm software was written to analyze data formats generated by SciMedia systems but can be modified to analyze other data formats.
Ten different parameters were measured from the 3 optical signals that were simultaneously recorded under each condition using the Rhythm 3.0 software to determine MECC. The ten parameters include, from transmembrane potential: (1) rise time (Vm RT), (2) action potential duration (APD80), (3) transverse and (4) longitudinal conduction velocity (CVT and CVL) and (5) anisotropic ratio (AR), from intracellular calcium: (6) rise time (Ca^2+ RT), (7) calcium transient duration (CaTD80), (8) calcium decay time constant (t), (9) Vm-Ca^2+ delay and (10) NADH fluorescence intensity.

With `COc1ccc(CCN(C)CCCC(C#N)(c2ccc(OC)c(OC)c2)C(C)C)cc1OC` (centres unmarked) [Verapamil, verapamil] the “APD80 (action potential duration)” value (BCL 80) was 31.06 ± 0.00, the “CVL (longitudinal conduction velocity)” value (BCL 80) was 0.28 ± 0.00 and the “CVT (transverse conduction velocity)” value (BCL 80) was 0.21 ± 0.00. The “Ca2+ RT (rise time)” value (BCL 80) was 8.09 ± 0.00, the “Ca t (calcium decay time constant)” value (BCL 80) was 13.71 ± 0.00 and the “CaTD80 (calcium transient duration)” value (BCL 80) was 60.74 ± 0.00. For the same compound, the “NADH fluorescence intensity (normalized to first recording of the heart)” value (BCL 80) was 1.04 ± 0.00, the “Vm-Ca2+ delay” value (BCL 80) was −2.81 ± 0.00 and the “APD80 (action potential duration)” value (BCL 90) was 44.72 ± 9.21. The “CVL (longitudinal conduction velocity)” value (BCL 90) was 0.35 ± 0.03, the “CVT (transverse conduction velocity)” value (BCL 90) was 0.18 ± 0.04 and the “Ca2+ RT (rise time)” value (BCL 90) was 8.16 ± 1.36. The “Ca t (calcium decay time constant)” value (BCL 90) was 17.15 ± 1.92, the “CaTD80 (calcium transient duration)” value (BCL 90) was 63.46 ± 2.71 and the “NADH fluorescence intensity (normalized to first recording of the heart)” value (BCL 90) was 0.98 ± 0.07. For the same compound, the “Vm RT (rise time)” value (BCL 90) was 4.65 ± 0.10, the “Vm-Ca2+ delay” value (BCL 90) was −6.07 ± 2.54 and the “APD80 (action potential duration)” value (BCL 100) was 45.75 ± 10.51. For the same compound, the “CVL (longitudinal conduction velocity)” value (BCL 100) was 0.60 ± 0.02, the “CVT (transverse conduction velocity)” value (BCL 100) was 0.23 ± 0.03 and the “Ca2+ RT (rise time)” value (BCL 100) was 9.54 ± 0.43. The “Ca t (calcium decay time constant)” value (BCL 100) was 20.41 ± 3.36, the “CaTD80 (calcium transient duration)” value (BCL 100) was 69.61 ± 3.02 and the “NADH fluorescence intensity (normalized to first recording of the heart)” value (BCL 100) was 0.99 ± 0.08. The “Vm RT (rise time)” value (BCL 100) was 4.70 ± 0.39, the “Vm-Ca2+ delay” value (BCL 100) was −5.22 ± 1.73 and the “APD80 (action potential duration)” value (BCL 125, 4-AP 7 mM) was 49.46 ± 6.20. The “CVL (longitudinal conduction velocity)” value (BCL 125, 4-AP 7 mM) was 0.59 ± 0.03, the “CVT (transverse conduction velocity)” value (BCL 125, 4-AP 7 mM) was 0.28 ± 0.03 and the “Ca2+ RT (rise time)” value (BCL 125, 4-AP 7 mM) was 8.28 ± 0.96. The “Ca t (calcium decay time constant)” value (BCL 125, 4-AP 7 mM) was 32.14 ± 11.32, the “CaTD80 (calcium transient duration)” value (BCL 125, 4-AP 7 mM) was 77.16 ± 7.51 and the “NADH fluorescence intensity (normalized to first recording of the heart)” value (BCL 125, 4-AP 7 mM) was 0.99 ± 0.08. For the same compound, the “Vm RT (rise time)” value (BCL 125, 4-AP 7 mM) was 4.57 ± 0.25, the “Vm-Ca2+ delay” value (BCL 125, 4-AP 7 mM) was −7.06 ± 4.13 and the “APD80 (action potential duration)” value (BCL 150, 4-AP 7 mM) was 54.39 ± 11.88. The “CVL (longitudinal conduction velocity)” value (BCL 150, 4-AP 7 mM) was 0.67 ± 0.02, the “CVT (transverse conduction velocity)” value (BCL 150, 4-AP 7 mM) was 0.29 ± 0.01 and the “Ca2+ RT (rise time)” value (BCL 150, 4-AP 7 mM) was 9.31 ± 0.93. For the same compound, the “Ca t (calcium decay time constant)” value (BCL 150, 4-AP 7 mM) was 32.38 ± 4.88, the “CaTD80 (calcium transient duration)” value (BCL 150, 4-AP 7 mM) was 89.183 ± 11.79 and the “NADH fluorescence intensity (normalized to first recording of the heart)” value (BCL 150, 4-AP 7 mM) was 0.99 ± 0.08. The “Vm RT (rise time)” value (BCL 150, 4-AP 7 mM) was 4.70 ± 0.46, the “Vm-Ca2+ delay” value (BCL 150, 4-AP 7 mM) was −5.24 ± 2.31 and the “APD80 (action potential duration)” value (BCL 200, 4-AP 7 mM) was 55.28 ± 2.94. For the same compound, the “CVL (longitudinal conduction velocity)” value (BCL 200, 4-AP 7 mM) was 0.56 ± 0.09, the “CVT (transverse conduction velocity)” value (BCL 200, 4-AP 7 mM) was 0.30 ± 0.05 and the “Ca2+ RT (rise time)” value (BCL 200, 4-AP 7 mM) was 9.14 ± 1.31. The “Ca t (calcium decay time constant)” value (BCL 200, 4-AP 7 mM) was 39.09 ± 5.88, the “CaTD80 (calcium transient duration)” value (BCL 200, 4-AP 7 mM) was 106.68 ± 19.92 and the “NADH fluorescence intensity (normalized to first recording of the heart)” value (BCL 200, 4-AP 7 mM) was 0.99 ± 0.07. The “Vm RT (rise time)” value (BCL 200, 4-AP 7 mM) was 4.72 ± 0.28 and the “Vm-Ca2+ delay” value (BCL 200, 4-AP 7 mM) was −8.14 ± 4.48.
`Nc1ccncc1` [4-AP, 4-aminopyridine] was tested, and the “BCL at which pacing of the hearts was prevented (no 1:1 capture)” value (4-AP 7 mM in presence of blebbistatin) was < 125 ms, the “Change in CVT (in words)” value (150 ms BCL, 4-AP 7 mM vs blebbistatin) was “slowed” and the “Change in Ca2+ RT (in words)” value (150 ms BCL, blebbistatin vs Control, 4-AP 7 mM vs blebbistatin) was “prolonged”. For the same compound, the “APD80 (action potential duration)” value (BCL 125, 4-AP 7 mM) was 69.09 ± 7.52, the “AR (anisotropic ratio, CVL to CVT)” value (BCL 125, 4-AP 7 mM) was 1.80 ± 0.19 and the “CVL (longitudinal conduction velocity)” value (BCL 125, 4-AP 7 mM) was 0.47 ± 0.07. For the same compound, the “CVT (transverse conduction velocity)” value (BCL 125, 4-AP 7 mM) was 0.27 ± 0.05, the “Ca2+ RT (rise time)” value (BCL 125, 4-AP 7 mM) was 6.82 ± 1.39 and the “Ca t (calcium decay time constant)” value (BCL 125, 4-AP 7 mM) was 27.106 ± 6.26. For the same compound, the “CaTD80 (calcium transient duration)” value (BCL 125, 4-AP 7 mM) was 79.32 ± 2.28, the “NADH fluorescence intensity (normalized to first recording of the heart)” value (BCL 125, 4-AP 7 mM) was 0.98 ± 0.07 and the “Vm RT (rise time)” value (BCL 125, 4-AP 7 mM) was 5.15 ± 0.29. For the same compound, the “Vm-Ca2+ delay” value (BCL 125, 4-AP 7 mM) was −1.88 ± 1.79, the “APD80 (action potential duration)” value (BCL 150, 4-AP 7 mM) was 78.13 ± 3.52 and the “AR (anisotropic ratio, CVL to CVT)” value (BCL 150, 4-AP 7 mM) was 1.90 ± 0.45. The “CVL (longitudinal conduction velocity)” value (BCL 150, 4-AP 7 mM) was 0.53 ± 0.09, the “CVT (transverse conduction velocity)” value (BCL 150, 4-AP 7 mM) was 0.28 ± 0.05 and the “Ca2+ RT (rise time)” value (BCL 150, 4-AP 7 mM) was 7.05 ± 1.03. The “Ca t (calcium decay time constant)” value (BCL 150, 4-AP 7 mM) was 30.94 ± 5.51, the “CaTD80 (calcium transient duration)” value (BCL 150, 4-AP 7 mM) was 88.37 ± 6.37 and the “NADH fluorescence intensity (normalized to first recording of the heart)” value (BCL 150, 4-AP 7 mM) was 0.97 ± 0.06. For the same compound, the “Vm RT (rise time)” value (BCL 150, 4-AP 7 mM) was 4.94 ± 0.63, the “Vm-Ca2+ delay” value (BCL 150, 4-AP 7 mM) was −1.71 ± 2.13 and the “APD80 (action potential duration)” value (BCL 200, 4-AP 7 mM) was 84.56 ± 6.68. For the same compound, the “AR (anisotropic ratio, CVL to CVT)” value (BCL 200, 4-AP 7 mM) was 1.97 ± 0.37, the “CVL (longitudinal conduction velocity)” value (BCL 200, 4-AP 7 mM) was 0.66 ± 0.06 and the “CVT (transverse conduction velocity)” value (BCL 200, 4-AP 7 mM) was 0.32 ± 0.05. The “Ca2+ RT (rise time)” value (BCL 200, 4-AP 7 mM) was 7.04 ± 1.57, the “Ca t (calcium decay time constant)” value (BCL 200, 4-AP 7 mM) was 37.11 ± 11.58 and the “CaTD80 (calcium transient duration)” value (BCL 200, 4-AP 7 mM) was 96.41 ± 8.18. For the same compound, the “NADH fluorescence intensity (normalized to first recording of the heart)” value (BCL 200, 4-AP 7 mM) was 0.97 ± 0.07, the “Vm RT (rise time)” value (BCL 200, 4-AP 7 mM) was 4.79 ± 0.23 and the “Vm-Ca2+ delay” value (BCL 200, 4-AP 7 mM) was −1.48 ± 1.38. The “Change in APD80 (in words)” value (all tested pacing rates, vs blebbistatin) was “prolonged”.
In the case of `Cc1ccc2c(c1)C(=O)C1(O)CCN(c3ccccc3)C1=N2` (centres unmarked) [Blebbistatin, blebbistatin], the “Change in CVT (in words)” value is reported as “faster”, the “Change in Ca2+ RT (in words)” value is reported as “increased” and the “Change in NADH intensity (in words)” value is reported as “reduced”. For the same compound, the “Number of the 10 measured parameters altered” value was 2 and the “Effect on contractions of the heart (electromechanical uncoupling)” value (blebbistatin) was “abolished contractions”.
